Results as given in paper PMC9637222, “Autoinducer-2 and bile salts induce c-di-GMP synthesis to repress the T3SS via a T3SS chaperone” (Nature Communications, 2022).
Where “and” joins values, the source holds several entries; their conditions need not be identical. Equal values may be shown once.

Assays:
[1] = target: T1, InvF (Salmonella typhimurium, UniProt P69343); details: individual replicates, Supplementary Figure 19d
T1 sequence (P69343 1-216): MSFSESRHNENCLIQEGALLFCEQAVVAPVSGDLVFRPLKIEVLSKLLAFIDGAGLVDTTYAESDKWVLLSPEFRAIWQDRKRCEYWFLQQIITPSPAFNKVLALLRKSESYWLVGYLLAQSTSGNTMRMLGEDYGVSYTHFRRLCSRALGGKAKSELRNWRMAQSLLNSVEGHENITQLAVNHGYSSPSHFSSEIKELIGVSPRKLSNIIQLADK
Method: (§1) ITC measurements were carried out at 20 °C with a Nano ITC Standard Volume isothermal calorimeter (TA Instruments, New Castle, DE) controlled by the ITCRun software. The N-terminal His6 tags of all purified proteins were removed before ITC analysis. For titrations with DPD/AI-2 (Omm Scientific), the tag-free proteins were dialyzed against a Tris buffer (25 mM Tris-HCl, 150 mM NaCl, pH 7.5) and diluted to 70 μM, while DPD/AI-2 was diluted with the same buffer to 700 μM. […] After being degassed, 1 ml of the protein and 250 μl of the ligand solution were added to the sample cell and the syringe, respectively. There were 25 injections per experiment and the stirring speed was 200 rpm. In control experiments, the ligand solution was titrated into the buffer in the sample cell to obtain the heat of dilution. Microcalorimetric data were corrected by subtracting the heats of dilution and fit to the independent binding site model using the NanoAnalyze software.
(§2) Supplementary Fig. 19 Isotherms representing binding of SicA and its variants with InvF, SipB and SipC as measured by ITC
(§3) ITC data and plots of injected heat for 25 automatic injections of 100 μM SicA (a, d, f),SicAK27A (b) or SicAN70A (c, e, g) into the sample cellcontaining 10 μM SipB (a-c), InvF (d, e), or SipC (f,g) are shown inthe upper and lower plots, respectively. […]

[2] = target: SipB; set-up: species or system S. Typhimurium; details: ITC, individual replicates, Supplementary Figure 19a; read-out: Kd, SicA binding to SipB
Method: as §1, §2, §3

[3] = target: T2, SipC (Salmonella typhimurium, UniProt E1WAC8); format: binding, S. Typhimurium; details: individual replicates, Supplementary Figure 19f
T2 construct: His6 (N, cleaved yes); made in house; host or cells: E. coli BL21(DE3) (pET28a-sipC)
T2 sequence (E1WAC8 whole entry): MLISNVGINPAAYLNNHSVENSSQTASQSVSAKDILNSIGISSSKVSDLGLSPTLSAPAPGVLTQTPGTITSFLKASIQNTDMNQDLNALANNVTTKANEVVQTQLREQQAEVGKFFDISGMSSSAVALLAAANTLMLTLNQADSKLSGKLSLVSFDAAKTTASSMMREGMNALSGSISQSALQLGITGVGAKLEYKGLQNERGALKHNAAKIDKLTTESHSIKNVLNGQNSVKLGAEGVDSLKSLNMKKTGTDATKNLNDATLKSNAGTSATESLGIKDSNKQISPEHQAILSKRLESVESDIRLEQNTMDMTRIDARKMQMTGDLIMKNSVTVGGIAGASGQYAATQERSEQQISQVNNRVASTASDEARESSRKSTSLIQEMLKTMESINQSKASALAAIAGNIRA
T2 sequence (P69066 whole entry partner): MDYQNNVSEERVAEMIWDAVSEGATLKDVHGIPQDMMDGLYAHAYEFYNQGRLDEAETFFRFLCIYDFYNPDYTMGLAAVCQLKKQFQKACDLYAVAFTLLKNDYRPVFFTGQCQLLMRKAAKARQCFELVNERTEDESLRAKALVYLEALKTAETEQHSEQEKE
Method: as §1, §2, §3

[4] = target: KMK13526-LBD (H216Y/Q245D) (Pluralibacter gergoviae, UniProt A0A0J5L7D7, H216Y/Q245D); details: ITC binding stoichiometry n, individual replicates, Supplementary Figure 7d
Sequence of KMK13526-LBD (H216Y/Q245D) (A0A0J5L7D7 31-310 H216Y/Q245D): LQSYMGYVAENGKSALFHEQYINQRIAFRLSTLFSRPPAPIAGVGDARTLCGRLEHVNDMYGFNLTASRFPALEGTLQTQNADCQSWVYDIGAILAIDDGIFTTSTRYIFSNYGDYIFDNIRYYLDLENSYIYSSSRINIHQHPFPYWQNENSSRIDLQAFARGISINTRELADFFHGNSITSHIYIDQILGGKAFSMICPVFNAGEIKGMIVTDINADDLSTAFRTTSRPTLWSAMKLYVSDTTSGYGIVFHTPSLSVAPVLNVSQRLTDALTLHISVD

[5] = target: YeaJ-LBDD239A (Salmonella enterica subsp. enterica serovar Typhimurium, UniProt Q8ZPW4, D239A); assay: ITC: DPD/AI-2 binding to YeaJ-LBD D239A mutant; set-up: species or system S. Typhimurium; details: head prints YeaJ-LBDY239A, individual experiments, source data Fig. 2d
Method: as §1

[6] = tested on: S. Typhimurium; assay: Cellular c-di-GMP quantification by LC-MS/MS; format: cell-based; details: for Change of intracellular c-di-GMP concentration (in words): exogenous DPD/AI-2 (10 μM, 30 min)
Method: For stimulation with AI-2, the DPD/AI-2 solution was added to the shaking culture at OD600 of 1.3, followed by another 30 min of incubation at 37 °C. For induction by porcine bile salts and individual bile components (Sigma-Aldrich), substances were added to the static culture at OD600 of 1.1, followed by another 30 min of incubation at 37 °C. About 15 ml of culture was centrifuged and the cells were washed twice with phosphate-buffered saline (PBS, pH 7.0). The cell pellets were resuspended in 500 μl of extraction solution (acetonitrile/methanol/water, 40:40:20, v/v/v) and cooled on ice for 15 min. The samples were boiled for 10 min at 95 °C and then cooled again on ice for 15 min. After centrifugation at 20,000×g and 4 °C for 10 min, supernatants were transferred to new tubes on ice. The remaining pellets were used for two more extraction steps with 500 μl of the extraction solution without heating. Pooled supernatants for each sample were lyophilized, and pellets were resolubilized in 200 μl of distilled water. C-di-GMP concentrations were then measured by LC-MS/MS[63] (AB SCIEX QTRAP 6500+ LC-MS/MS System). Intracellular levels of c-di-GMP were normalized to the number of bacterial cells for each sample.

[7] = tested on: YeaJ; assay: In vitro DGC activity assay of YeaJ (membrane fractions, HPLC of c-di-GMP); format: biochemical, S. Typhimurium; details: 100 μM GTP; for Concentration of c-di-GMP: 30 °C
[8] = target: YeaJ-LBDY210A (Salmonella enterica subsp. enterica serovar Typhimurium, UniProt Q8ZPW4, Y210A); assay: ITC: DPD/AI-2 binding to YeaJ-LBD Y210A mutant; set-up: species or system S. Typhimurium; details: individual experiments, source data Fig. 2d
Method: as §1

[9] = target: T3, YeaJ-LBD (Salmonella enterica subsp. enterica serovar Typhimurium, UniProt Q8ZPW4); assay: ITC: DPD/AI-2 binding to YeaJ-LBD; set-up: species or system S. Typhimurium
T3 sequence (Q8ZPW4 30-304): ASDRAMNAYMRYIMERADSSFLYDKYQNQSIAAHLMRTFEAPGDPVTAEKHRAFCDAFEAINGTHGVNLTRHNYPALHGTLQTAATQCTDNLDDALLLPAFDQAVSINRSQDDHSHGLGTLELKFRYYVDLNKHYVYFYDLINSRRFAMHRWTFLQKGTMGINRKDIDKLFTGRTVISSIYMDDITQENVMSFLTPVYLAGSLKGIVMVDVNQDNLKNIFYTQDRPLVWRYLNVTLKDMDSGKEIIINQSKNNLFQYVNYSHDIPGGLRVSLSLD
Method: as §1

[10] = target: T4, WP_000766134-LBD (Escherichia coli O157:H7, UniProt A0A0H3JEN8); assay: ITC: DPD/AI-2 binding to GAPES1 domain of the YeaJ homolog from EHEC O157:H7
T4 sequence (A0A0H3JEN8 31-304): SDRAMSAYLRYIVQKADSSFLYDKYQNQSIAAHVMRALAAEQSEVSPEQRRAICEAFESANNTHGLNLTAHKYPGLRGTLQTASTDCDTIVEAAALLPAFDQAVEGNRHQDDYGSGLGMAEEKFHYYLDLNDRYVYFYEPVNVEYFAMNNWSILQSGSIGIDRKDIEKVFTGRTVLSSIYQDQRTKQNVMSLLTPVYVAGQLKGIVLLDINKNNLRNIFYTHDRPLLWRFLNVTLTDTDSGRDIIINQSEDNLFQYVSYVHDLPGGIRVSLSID

[11] = target: KMK13526-LBD (Pluralibacter gergoviae, UniProt A0A0J5L7D7); assay: ITC: DPD/AI-2 binding to KMK13526-LBD; details: ITC binding stoichiometry n, individual replicates, Supplementary Figure 7b
Sequence of KMK13526-LBD (A0A0J5L7D7 31-310): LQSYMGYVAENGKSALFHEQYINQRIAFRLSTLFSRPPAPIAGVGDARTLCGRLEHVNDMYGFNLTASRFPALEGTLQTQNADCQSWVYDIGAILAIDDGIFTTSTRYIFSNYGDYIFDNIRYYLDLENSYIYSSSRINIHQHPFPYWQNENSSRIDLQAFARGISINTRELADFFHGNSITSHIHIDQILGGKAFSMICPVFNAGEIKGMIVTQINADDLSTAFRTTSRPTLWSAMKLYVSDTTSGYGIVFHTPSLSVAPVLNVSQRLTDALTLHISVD

[12] = target: WP_034494714-LBD (Buttiauxella agrestis, UniProt A0A085GF42); assay: ITC: DPD/AI-2 binding to WP_034494714-LBD; details: individual replicates, Supplementary Figure 7c
Sequence of WP_034494714-LBD (A0A085GF42 27-302): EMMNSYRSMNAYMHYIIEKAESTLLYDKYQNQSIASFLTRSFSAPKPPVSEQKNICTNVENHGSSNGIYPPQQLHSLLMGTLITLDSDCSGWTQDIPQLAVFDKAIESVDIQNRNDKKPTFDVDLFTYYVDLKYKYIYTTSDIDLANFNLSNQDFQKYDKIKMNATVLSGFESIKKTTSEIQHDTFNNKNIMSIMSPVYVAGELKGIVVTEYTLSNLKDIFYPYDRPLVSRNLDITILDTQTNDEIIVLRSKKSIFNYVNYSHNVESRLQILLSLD

[13] = individual experiments, source data Fig. 1d

Question: Which “n, SicA binding to InvF” value ([1]; ITC binding stoichiometry n) does the source give for SicA here?
Answer: 1.00 and 1.13 and 1.16

Question: And the Kd ([1]; read-out: Kd, SicA binding to InvF, ITC)?
Answer: 470 nM and 420 nM and 490 nM

Question: What about the Kd [2] of the same molecule?
Answer: 500 nM and 560 nM and 540 nM

Question: What about the “n, SicA binding to SipC” value ([3]; ITC binding stoichiometry n) of the same molecule?
Answer: 1.04 and 1.18 and 1.02

Question: What about the Kd ([3]; ITC, read-out: Kd, SicA binding to SipC) of the same molecule?
Answer: 670 nM and 550 nM

Question: Which results are given for `CC(=O)C(=O)[C@@H](O)CO` [DPD/AI-2, autoinducer-2]?
Answer: n, DPD/AI-2 binding to KMK13526-LBDH216Y/Q245D [4]: 1.11 and 1.03 and 1.17; Kd [5]: 17 µM; n (complex stoichiometry) [5]: 0.97 and 0.93; Change of intracellular c-di-GMP concentration (in words) ([6]; ΔluxS mutant): significant increase; c-di-GMP (fmol/107 cells) ([6]; ΔluxS, 10 μM DPD/AI-2 for 30 min, LB, OD600 1.3, biological replicates): 31.06 fmol/107 cells and 29.99 fmol/107 cells and 27.56 fmol/107 cells; Change of intracellular c-di-GMP concentration (in words) ([6]; ΔyeaJΔluxS mutant): did not increase; Concentration of c-di-GMP ([7]; 100 μM DPD/AI-2, 30 min): 19.68 µM and 20.02 µM and 21.70 µM; Concentration of c-di-GMP ([7]; 100 μM DPD/AI-2, 60 min): 32.50 µM and 32.49 µM and 31.69 µM; Concentration of c-di-GMP ([7]; 200 μM DPD/AI-2, 30 min): 39.23 µM and 36.03 µM and 36.70 µM; Concentration of c-di-GMP ([7]; 200 μM DPD/AI-2, 60 min): 44.10 µM and 43.39 µM and 41.58 µM; Effect on DGC activity of YeaJ in synthesizing c-di-GMP (in words) ([7]; in vitro, membrane fractions): stimulates the activity of YeaJ; Kd [8]: 23 µM and 29 µM and 26 µM; n (complex stoichiometry) [8]: 1.02 and 0.93 and 1.04; Kd ([9]; 20 °C, mean ± s.d. of three independent experiments): 150 ± 20 nM; Kd [9, 13]: 160 nM and 130 nM; n (complex stoichiometry) [9, 13]: 1.20 and 1.19 and 1.04; n, DPD/AI-2 binding to WP_000766134-LBD ([10]; ITC binding stoichiometry n, individual replicates, Supplementary Figure 7a): 1.18 and 1.17 and 1.13; AI-2 binding affinity (in words) ([10]; ITC, GAPES1 domain of the YeaJ homolog from EHEC O157:H7): high affinity; Kd ([10]; read-out: Kd, DPD/AI-2 binding to WP_000766134-LBD, ITC, individual replicates, Supplementary Figure 7a): 120 nM and 170 nM; n, DPD/AI-2 binding to KMK13526-LBD [11]: 0.93 and 1.03 and 0.86; n, DPD/AI-2 binding to WP_034494714-LBD ([12]; ITC binding stoichiometry n): 0.94 and 0.97 and 0.98; Kd ([12]; read-out: Kd, DPD/AI-2 binding to WP_034494714-LBD, ITC): 32 µM and 39 µM and 38 µM
